Measured values published in ChEMBL document CHEMBL4706757, “Novel Substituted Pyridazines as Splicing Modulators for Modulating Splicing of mRNA and Uses Thereof for Treating Diseases” (ACS Med Chem Lett, 2021).
pEC50: −log10 of the molar value.

Tests used:
Format in all cases: cell-based
[1] = Modulation of HTT mRNA splicing in human GM04724 cells assessed as mHTT protein level incubated for 48 hrs by 2B7-MW1 assay; settings: GM04724, 48 h
[2] = Modulation of HTT mRNA exon 49b splicing in human GM04724 cells incubated for 24 hrs by TaqMan qPCR analysis; settings: GM04724, 24 h
[3] = Modulation of HTT mRNA exon 49-50 splicing in human GM04724 cells incubated for 24 hrs by TaqMan qPCR analysis; settings: GM04724, 24 h

Measured: pEC50

C[C@@]12CCC[C@@](C)(N1)[C@H](F)[C@H](Oc1ccc(-c3ccc(-c4cn[nH]c4)cc3O)nn1)C2
≥ 11.00: all assays above

Cn1cc(-c2cc(O)c(-c3ccc(O[C@@H]4C[C@@H]5CCC[C@@H](N5)[C@@H]4F)nn3)cc2F)cn1
≥ 11.00: all assays above

Oc1cc(-c2cn[nH]c2)c(F)cc1-c1ccc(O[C@@H]2C[C@@H]3CCC[C@@H](N3)[C@@H]2F)nn1
≥ 11.00: all assays above

Oc1cc(-c2cn[nH]c2)c(F)cc1-c1ccc(O[C@H]2C[C@H]3CCC[C@H](N3)[C@H]2F)nn1
≥ 11.00: all assays above

Oc1cc(-c2cn[nH]c2)ccc1-c1ccc(O[C@H]2C[C@H]3CCC[C@H](N3)[C@H]2F)nn1
≥ 11.00: all assays above

Oc1cc(-c2cn[nH]c2)ccc1-c1ccc(O[C@@H]2C[C@@H]3CCC[C@@H](N3)[C@@H]2F)nn1
≥ 11.00: all assays above

C[C@]12CCC[C@](C)(N1)[C@@H](F)[C@@H](Oc1ccc(-c3ccc(-c4cn[nH]c4)cc3O)nn1)C2
≥ 11.00: all assays above

Cn1cc(-c2cc(O)c(-c3ccc(O[C@H]4C[C@H]5CCC[C@H](N5)[C@H]4F)nn3)cc2F)cn1
≥ 11.00: all assays above
